PMC7265341, “Quantifying CDK inhibitor selectivity in live cells” (Nature Communications, 2020)
Like-named read-outs stand apart in the source and are kept apart here.

Columns and labels:
[1] = target: CDK1/Cyclin E1 (Homo sapiens, UniProt P06493); test: NanoBRET live-cell target engagement, CDK1-NanoLuc/Cyclin E1 in HEK-293; type: binding; conditions: CDK1/E1, 10µM
[2] = target: CDK5/CDK5R1 (Homo sapiens, UniProt Q00535); test: NanoBRET live-cell target engagement, CDK5-NanoLuc/CDK5R1 in HEK-293; type: binding; conditions: CDK5/CDK5R1, 10µM
[3] = target: CDK14/Cyclin Y (Homo sapiens, UniProt O94921); test: NanoBRET live-cell target engagement, CDK14-NanoLuc/Cyclin Y in HEK-293; type: binding; conditions: CDK14/Y, 10µM
[4] = target: CDK20/Cyclin H (Homo sapiens, UniProt Q8IZL9); test: NanoBRET live-cell target engagement, NanoLuc-CDK20/Cyclin H in HEK-293; type: binding; conditions: CDK20/H, 10µM
[5] = target: CDK18/Cyclin Y (Homo sapiens, UniProt Q07002); test: NanoBRET live-cell target engagement, CDK18-NanoLuc/Cyclin Y in HEK-293; type: binding; conditions: CDK18/Y
[6] = target: CDK19/Cyclin C (Homo sapiens, UniProt Q9BWU1); test: NanoBRET live-cell target engagement, NanoLuc-CDK19/Cyclin C in HEK-293
[7] = target: CDK16/Cyclin Y (Homo sapiens, UniProt Q00536); test: NanoBRET live-cell target engagement, CDK16-NanoLuc/Cyclin Y in HEK-293; type: binding; conditions: CDK16/Y, 10µM
[8] = target: CDK11B/Cyclin L2 (Homo sapiens, UniProt P21127); test: NanoBRET live-cell target engagement, CDK11B-NanoLuc/Cyclin L2 in HEK-293; type: binding; conditions: CDK11b/L2, 10µM
[9] = target: CDK10/Cyclin L2 (Homo sapiens, UniProt Q15131); test: NanoBRET live-cell target engagement, CDK10-NanoLuc/Cyclin L2 in HEK-293; conditions: 10µM
[10] = target: CDK6/Cyclin D1 (Homo sapiens, UniProt Q00534); test: NanoBRET live-cell target engagement, NanoLuc-CDK6/Cyclin D1 in HEK-293; type: binding; conditions: CDK6/D1, 10µM
[11] = target: CDK15/Cyclin Y (Homo sapiens, UniProt Q96Q40); test: NanoBRET live-cell target engagement, NanoLuc-CDK15/Cyclin Y in HEK-293; type: binding; conditions: CDK15/Y, 10µM
[12] = target: CDK17/Cyclin Y (Homo sapiens, UniProt Q00537); test: NanoBRET live-cell target engagement, CDK17-NanoLuc/Cyclin Y in HEK-293; type: binding; conditions: CDK17/Y, 10µM
[13] = target: CDK8/Cyclin C (Homo sapiens, UniProt P49336); test: NanoBRET live-cell target engagement, NanoLuc-CDK8/Cyclin C in HEK-293; type: binding
[14] = target: CDK4/Cyclin D1 (Homo sapiens, UniProt P11802); test: NanoBRET live-cell target engagement, NanoLuc-CDK4/Cyclin D1 in HEK-293; type: binding; conditions: CDK4/D1, 10µM
[15] = target: CDK7 (Homo sapiens, UniProt P50613); test: NanoBRET live-cell target engagement, NanoLuc-CDK7 in HEK-293; type: binding; conditions: CDK7
[16] = target: CDK13/Cyclin K (Homo sapiens, UniProt Q14004); test: NanoBRET live-cell target engagement, CDK13-NanoLuc/Cyclin K in HEK-293; type: binding; conditions: CDK13/K, 10µM
[17] = target: CDK12/Cyclin K (Homo sapiens, UniProt Q9NYV4); test: NanoBRET live-cell target engagement, CDK12-NanoLuc/Cyclin K in HEK-293; type: binding; conditions: CDK12/K, 10µM
[18] = target: CDK3/Cyclin E1 (Homo sapiens, UniProt Q00526); test: NanoBRET live-cell target engagement, CDK3-NanoLuc/Cyclin E1 in HEK-293; type: binding; conditions: CDK3/E1, 10µM
[19] = target: CDK9/Cyclin K (Homo sapiens, UniProt P50750); test: NanoBRET live-cell target engagement, NanoLuc-CDK9/Cyclin K in HEK-293; type: binding; conditions: CDK9/K, 10µM
[20] = target: CDK2/Cyclin E1 (Homo sapiens, UniProt P24941); test: NanoBRET live-cell target engagement, CDK2-NanoLuc/Cyclin E1 in HEK-293; type: binding; conditions: CDK2/E1, 10µM
[21] = average of replicates, read-out: Inhibition at 10µM (%) Average
[22] = read-out: Inhibition at 10µM (%) Replicate 1
[23] = read-out: Inhibition at 10µM (%) Replicate 2
[24] = n=3 average ± SEM, n=2 average to 2 significant figures, read-out: IC50 (nM) Average*
[25] = read-out: IC50 (nM) Replicate 1
[26] = read-out: IC50 (nM) Replicate 2
[27] = IC50 (nM) Average*, CDK19/Y, n=3 average ± SEM, n=2 average to 2 significant figures
[28] = read-out: Inhibition at 10µM (%) Average, CDK19/C, average of replicates
[29] = read-out: Inhibition at 10µM (%) Replicate 1, CDK19/C
[30] = read-out: Inhibition at 10µM (%) Replicate 2, CDK19/C
[31] = read-out: Inhibition at 10µM (%) Average, CDK10/L2, average of replicates
[32] = read-out: Inhibition at 10µM (%) Replicate 1, CDK10/L2
[33] = read-out: Inhibition at 10µM (%) Replicate 2, CDK10/L2
[34] = CDK8/C, average of replicates, read-out: Inhibition at 10µM (%) Average
[35] = CDK8/C, read-out: Inhibition at 10µM (%) Replicate 1
[36] = CDK8/C, n=3 average ± SEM, n=2 average to 2 significant figures, read-out: IC50 (nM) Average*
[37] = CDK8/C, read-out: IC50 (nM) Replicate 1
[38] = CDK8/C, read-out: IC50 (nM) Replicate 2

CDK14/Cyclin Y, sequence (O94921 whole entry): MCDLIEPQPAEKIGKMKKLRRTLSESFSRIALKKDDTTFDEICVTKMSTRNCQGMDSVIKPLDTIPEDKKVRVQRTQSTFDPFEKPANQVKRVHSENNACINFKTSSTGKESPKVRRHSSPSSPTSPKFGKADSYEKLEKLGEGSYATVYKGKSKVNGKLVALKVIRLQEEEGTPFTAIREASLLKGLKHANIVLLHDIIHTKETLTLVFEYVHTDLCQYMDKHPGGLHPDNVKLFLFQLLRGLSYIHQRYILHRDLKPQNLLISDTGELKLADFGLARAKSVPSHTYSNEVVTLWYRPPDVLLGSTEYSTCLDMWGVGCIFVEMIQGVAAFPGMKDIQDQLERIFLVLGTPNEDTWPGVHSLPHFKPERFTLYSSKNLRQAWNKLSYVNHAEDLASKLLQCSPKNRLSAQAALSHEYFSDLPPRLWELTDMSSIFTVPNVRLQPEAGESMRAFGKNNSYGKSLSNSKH
CDK14/Cyclin Y, sequence (Q8ND76 whole entry partner): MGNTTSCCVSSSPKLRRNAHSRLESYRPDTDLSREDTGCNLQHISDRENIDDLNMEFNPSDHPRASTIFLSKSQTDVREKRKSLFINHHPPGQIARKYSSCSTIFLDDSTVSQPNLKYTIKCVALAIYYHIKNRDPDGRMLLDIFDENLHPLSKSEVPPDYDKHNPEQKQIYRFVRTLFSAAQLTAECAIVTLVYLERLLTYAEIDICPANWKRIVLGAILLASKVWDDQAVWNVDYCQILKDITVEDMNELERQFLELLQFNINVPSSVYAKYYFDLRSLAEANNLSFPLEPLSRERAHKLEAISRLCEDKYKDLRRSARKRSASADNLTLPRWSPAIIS
CDK6/Cyclin D1, sequence (Q00534 whole entry): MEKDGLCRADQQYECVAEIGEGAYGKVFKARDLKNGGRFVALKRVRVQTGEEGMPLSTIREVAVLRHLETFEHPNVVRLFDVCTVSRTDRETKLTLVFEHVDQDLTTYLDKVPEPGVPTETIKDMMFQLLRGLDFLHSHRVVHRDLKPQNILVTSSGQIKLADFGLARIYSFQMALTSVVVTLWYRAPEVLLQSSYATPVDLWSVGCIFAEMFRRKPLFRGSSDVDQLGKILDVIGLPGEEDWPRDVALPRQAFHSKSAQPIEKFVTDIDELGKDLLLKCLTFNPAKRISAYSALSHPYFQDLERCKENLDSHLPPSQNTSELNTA
CDK6/Cyclin D1, sequence (P24385 whole entry partner): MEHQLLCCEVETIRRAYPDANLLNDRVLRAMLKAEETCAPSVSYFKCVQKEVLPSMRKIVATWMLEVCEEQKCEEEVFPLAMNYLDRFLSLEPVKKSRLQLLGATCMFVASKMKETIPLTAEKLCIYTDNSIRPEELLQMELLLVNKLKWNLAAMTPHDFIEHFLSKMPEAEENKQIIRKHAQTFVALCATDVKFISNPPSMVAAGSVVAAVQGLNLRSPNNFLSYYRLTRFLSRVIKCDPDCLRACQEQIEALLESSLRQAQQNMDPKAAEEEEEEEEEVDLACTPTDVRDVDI
CDK15/Cyclin Y, sequence (Q96Q40 whole entry): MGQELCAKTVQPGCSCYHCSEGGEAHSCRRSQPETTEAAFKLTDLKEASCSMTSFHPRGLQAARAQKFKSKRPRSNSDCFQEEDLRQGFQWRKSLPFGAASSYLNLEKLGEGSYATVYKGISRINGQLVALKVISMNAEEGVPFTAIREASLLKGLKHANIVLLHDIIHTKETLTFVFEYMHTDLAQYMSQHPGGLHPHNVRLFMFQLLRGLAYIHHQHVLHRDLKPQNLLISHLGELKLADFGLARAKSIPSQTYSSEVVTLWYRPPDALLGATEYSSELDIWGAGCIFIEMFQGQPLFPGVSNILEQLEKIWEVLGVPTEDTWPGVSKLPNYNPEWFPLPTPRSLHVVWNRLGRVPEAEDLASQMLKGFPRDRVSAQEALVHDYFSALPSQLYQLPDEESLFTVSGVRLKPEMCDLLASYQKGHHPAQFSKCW
CDK15/Cyclin Y, sequence (Q8ND76 whole entry partner): as the sequence (Q8ND76 whole entry partner) above
CDK9/Cyclin K, sequence (P50750 whole entry): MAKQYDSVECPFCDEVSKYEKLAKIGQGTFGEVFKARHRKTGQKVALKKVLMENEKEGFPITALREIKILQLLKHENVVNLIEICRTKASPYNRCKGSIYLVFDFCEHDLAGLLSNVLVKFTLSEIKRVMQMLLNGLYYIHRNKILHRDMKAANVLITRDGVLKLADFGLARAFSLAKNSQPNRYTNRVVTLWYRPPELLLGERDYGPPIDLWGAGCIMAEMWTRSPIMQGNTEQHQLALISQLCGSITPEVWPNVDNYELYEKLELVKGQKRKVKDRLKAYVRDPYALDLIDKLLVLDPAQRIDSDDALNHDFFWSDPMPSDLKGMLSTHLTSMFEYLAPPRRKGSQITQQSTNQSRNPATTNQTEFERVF
CDK9/Cyclin K, sequence (O75909 whole entry partner): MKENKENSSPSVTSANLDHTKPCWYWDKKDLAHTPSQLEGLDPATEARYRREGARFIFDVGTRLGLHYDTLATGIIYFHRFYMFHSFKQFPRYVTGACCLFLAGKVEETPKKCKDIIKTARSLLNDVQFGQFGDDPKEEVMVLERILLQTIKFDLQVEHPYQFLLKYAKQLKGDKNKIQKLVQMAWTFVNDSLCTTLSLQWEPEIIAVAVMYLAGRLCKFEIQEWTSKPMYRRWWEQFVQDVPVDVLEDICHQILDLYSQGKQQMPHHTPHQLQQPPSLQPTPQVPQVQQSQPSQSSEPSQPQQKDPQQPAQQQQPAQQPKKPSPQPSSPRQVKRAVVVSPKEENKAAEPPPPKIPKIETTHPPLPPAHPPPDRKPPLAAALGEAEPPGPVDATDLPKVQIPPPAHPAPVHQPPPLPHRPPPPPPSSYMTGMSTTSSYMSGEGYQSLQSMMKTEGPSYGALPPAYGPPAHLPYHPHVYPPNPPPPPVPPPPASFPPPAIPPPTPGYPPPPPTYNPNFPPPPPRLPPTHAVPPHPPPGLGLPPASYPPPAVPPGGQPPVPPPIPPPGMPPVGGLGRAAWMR
CDK12/Cyclin K, sequence (Q9NYV4 1-1481 isoform Q9NYV4-2): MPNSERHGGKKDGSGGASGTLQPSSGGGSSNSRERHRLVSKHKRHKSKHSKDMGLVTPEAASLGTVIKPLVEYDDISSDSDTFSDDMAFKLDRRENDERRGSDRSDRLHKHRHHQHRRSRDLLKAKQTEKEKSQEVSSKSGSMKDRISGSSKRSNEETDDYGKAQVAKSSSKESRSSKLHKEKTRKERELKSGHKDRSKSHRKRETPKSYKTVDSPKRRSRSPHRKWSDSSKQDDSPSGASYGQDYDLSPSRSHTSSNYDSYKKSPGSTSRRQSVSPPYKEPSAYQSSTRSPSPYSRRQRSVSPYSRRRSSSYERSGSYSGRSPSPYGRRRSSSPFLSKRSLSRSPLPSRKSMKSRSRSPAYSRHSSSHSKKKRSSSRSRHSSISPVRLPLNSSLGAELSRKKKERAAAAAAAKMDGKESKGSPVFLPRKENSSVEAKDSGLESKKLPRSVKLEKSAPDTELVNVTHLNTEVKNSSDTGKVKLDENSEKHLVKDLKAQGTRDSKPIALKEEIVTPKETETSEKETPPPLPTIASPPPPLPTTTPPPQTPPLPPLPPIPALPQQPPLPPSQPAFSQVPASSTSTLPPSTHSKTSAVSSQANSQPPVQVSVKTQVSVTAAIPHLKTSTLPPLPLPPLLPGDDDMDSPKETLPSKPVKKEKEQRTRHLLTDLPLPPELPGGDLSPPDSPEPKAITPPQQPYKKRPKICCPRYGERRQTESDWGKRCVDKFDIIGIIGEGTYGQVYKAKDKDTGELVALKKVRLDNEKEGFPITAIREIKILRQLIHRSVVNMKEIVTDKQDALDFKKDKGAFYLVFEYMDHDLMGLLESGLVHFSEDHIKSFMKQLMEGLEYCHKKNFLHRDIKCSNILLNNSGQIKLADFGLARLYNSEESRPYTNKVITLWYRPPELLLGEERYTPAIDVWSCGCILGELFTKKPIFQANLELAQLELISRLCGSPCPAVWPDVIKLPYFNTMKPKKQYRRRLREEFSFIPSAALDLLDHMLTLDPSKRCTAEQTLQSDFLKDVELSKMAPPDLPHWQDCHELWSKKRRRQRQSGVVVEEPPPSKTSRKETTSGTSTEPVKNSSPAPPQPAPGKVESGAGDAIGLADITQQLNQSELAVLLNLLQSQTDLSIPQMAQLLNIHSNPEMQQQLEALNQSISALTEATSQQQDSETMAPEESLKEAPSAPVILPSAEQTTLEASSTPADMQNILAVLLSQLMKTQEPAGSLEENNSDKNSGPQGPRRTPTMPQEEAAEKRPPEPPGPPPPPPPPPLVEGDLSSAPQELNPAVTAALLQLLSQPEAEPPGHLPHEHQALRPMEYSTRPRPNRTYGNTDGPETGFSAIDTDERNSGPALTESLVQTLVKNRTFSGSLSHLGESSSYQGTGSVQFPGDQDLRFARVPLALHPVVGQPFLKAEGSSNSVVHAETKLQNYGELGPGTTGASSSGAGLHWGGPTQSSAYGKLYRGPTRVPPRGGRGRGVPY
CDK12/Cyclin K, sequence (O75909 whole entry partner): as the sequence (O75909 whole entry partner) above
CDK5/CDK5R1, sequence (Q00535 whole entry): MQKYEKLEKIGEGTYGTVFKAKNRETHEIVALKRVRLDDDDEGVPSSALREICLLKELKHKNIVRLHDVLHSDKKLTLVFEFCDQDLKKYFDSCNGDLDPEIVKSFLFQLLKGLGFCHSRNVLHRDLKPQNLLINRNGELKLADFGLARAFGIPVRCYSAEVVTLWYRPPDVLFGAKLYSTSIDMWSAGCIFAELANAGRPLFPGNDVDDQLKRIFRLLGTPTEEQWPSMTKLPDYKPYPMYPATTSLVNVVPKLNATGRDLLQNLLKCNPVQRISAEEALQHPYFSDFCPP
CDK5/CDK5R1, sequence (Q15078 whole entry partner): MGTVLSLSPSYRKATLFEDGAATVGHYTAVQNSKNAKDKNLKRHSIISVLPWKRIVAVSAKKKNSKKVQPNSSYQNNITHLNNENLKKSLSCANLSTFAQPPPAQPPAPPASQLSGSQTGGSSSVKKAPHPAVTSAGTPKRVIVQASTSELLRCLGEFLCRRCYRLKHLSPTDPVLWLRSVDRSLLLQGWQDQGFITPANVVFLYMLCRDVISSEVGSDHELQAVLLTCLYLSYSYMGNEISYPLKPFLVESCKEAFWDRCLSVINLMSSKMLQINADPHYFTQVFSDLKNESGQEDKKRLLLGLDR

## Cc1ncc(-c2ccnc(Nc3ccc(S(C)(=O)=O)cc3)n2)n1C(C)C [AZD5438]
[1]; [21]
  inhibition at 10 µM: 78.5%
[1]; [22]
  inhibition at 10 µM: 78.7%
[1]; [23]
  inhibition at 10 µM: 78.3%
[2]; [21]
  inhibition at 10 µM: 90.8%
[2]; [22]
  inhibition at 10 µM: 87.9%
[2]; [23]
  inhibition at 10 µM: 93.8%
[3]; [21]
  inhibition at 10 µM: 70.3%
[3]; [22]
  inhibition at 10 µM: 69.6%
[3]; [23]
  inhibition at 10 µM: 71%
[4]; [22]
  inhibition at 10 µM: 22.8%
[4]; [23]
  inhibition at 10 µM: 25.6%
[5]; [21]
  inhibition at 10 µM: 90%
[5]; [22]
  inhibition at 10 µM: 84.4%
[5]; [23]
  inhibition at 10 µM: 95.5%
[5]; [24]
  IC50: 670 nM
[5]; [25]
  IC50: 566 nM
[5]; [26]
  IC50: 770 nM
[6]; [27]
  IC50: 300 nM
[6]; IC50 (nM) Replicate 1, CDK19/C
  IC50: 470 nM
[6]; IC50 (nM) Replicate 2, CDK19/C
  IC50: 140 nM
[6]; [28]
  inhibition at 10 µM: 92.8%
[6]; [29]
  inhibition at 10 µM: 90.6%
[6]; [30]
  inhibition at 10 µM: 95.1%
[7]; [22]
  inhibition at 10 µM: 90%
[7]; [23]
  inhibition at 10 µM: 89.6%
[8]; [21]
  inhibition at 10 µM: 70.1%
[8]; [22]
  inhibition at 10 µM: 70.5%
[8]; [23]
  inhibition at 10 µM: 69.7%
[9]; [31]
  inhibition at 10 µM: 64.8%
[9]; [32]
  inhibition at 10 µM: 63.3%
[9]; [33]
  inhibition at 10 µM: 66.2%
[10]; [21]
  inhibition at 10 µM: 91.2%
[10]; [22]
  inhibition at 10 µM: 90.8%
[10]; [23]
  inhibition at 10 µM: 91.7%
[11]; [21]
  inhibition at 10 µM: 72.1%
[11]; [22]
  inhibition at 10 µM: 69.4%
[11]; [23]
  inhibition at 10 µM: 74.8%
[12]; [21]
  inhibition at 10 µM: 90.7%
[12]; [22]
  inhibition at 10 µM: 91.3%
[12]; [23]
  inhibition at 10 µM: 90.1%
[13]; [34]
  inhibition at 10 µM: 90.5%
[13]; [35]
  inhibition at 10 µM: 94.1%
[13]; [36]
  IC50: 200 nM
[13]; [37]
  IC50: 330 nM
[13]; [38]
  IC50: 79 nM
[14]; [21]
  inhibition at 10 µM: 89.9%
[14]; [22]
  inhibition at 10 µM: 88.9%
[14]; [23]
  inhibition at 10 µM: 90.9%
[15]; [21]
  inhibition at 10 µM: 77.1%
[15]; [22]
  inhibition at 10 µM: 71.7%
[15]; [23]
  inhibition at 10 µM: 82.5%
[16]; [21]
  inhibition at 10 µM: 15.8%
[16]; [22]
  inhibition at 10 µM: 21.6%
[16]; [23]
  inhibition at 10 µM: 10.1%
[17]; [21]
  inhibition at 10 µM: 17.1%
[17]; [22]
  inhibition at 10 µM: 15.7%
[17]; [23]
  inhibition at 10 µM: 18.5%

## CCN1CCN(Cc2ccc(NC(=O)Nc3ccc(Oc4cc(NC)ncn4)cc3)cc2C(F)(F)F)CC1 [AST-487]
[1]; [21]
  inhibition at 10 µM: 75.2%
[1]; [22]
  inhibition at 10 µM: 59.8%
[1]; [23]
  inhibition at 10 µM: 90.6%
[2]; [21]
  inhibition at 10 µM: 38.1%
[2]; [22]
  inhibition at 10 µM: 12.7%
[2]; [23]
  inhibition at 10 µM: 63.5%
[18]; [21]
  inhibition at 10 µM: 71.7%
[18]; [22]
  inhibition at 10 µM: 58%
[18]; [23]
  inhibition at 10 µM: 85.5%
[4]; [22]
  inhibition at 10 µM: 38.4%
[4]; [23]
  inhibition at 10 µM: 80.6%
[19]; [21]
  inhibition at 10 µM: 83.3%
[19]; [22]
  inhibition at 10 µM: 72.3%
[19]; [23]
  inhibition at 10 µM: 94.4%
[6]; [27]
  IC50: 25 nM
[6]; IC50 (nM) Replicate 1, CDK19/C
  IC50: 28 nM
[6]; IC50 (nM) Replicate 2, CDK19/C
  IC50: 22 nM
[6]; IC50, [Probe 1] 0.5 µM (plot: [Probe 3]), n=1
  IC50: 9.4 nM
[6]; IC50, [Probe 1] 1 µM (plot: [Probe 3]), n=1
  IC50: 10 nM
[6]; [28]
  inhibition at 10 µM: 98.4%
[6]; [29]
  inhibition at 10 µM: 94.2%
[6]; [30]
  inhibition at 10 µM: 103%
[8]; [21]
  inhibition at 10 µM: 10.3%
[8]; [22]
  inhibition at 10 µM: 10.9%
[8]; [23]
  inhibition at 10 µM: 9.7%
[9]; [31]
  inhibition at 10 µM: 84.1%
[9]; [32]
  inhibition at 10 µM: 74.4%
[9]; [33]
  inhibition at 10 µM: 93.8%
[10]; [21]
  inhibition at 10 µM: 50.9%
[10]; [22]
  inhibition at 10 µM: 15.7%
[10]; [23]
  inhibition at 10 µM: 86.2%
[13]; [34]
  inhibition at 10 µM: 95.7%
[13]; [35]
  inhibition at 10 µM: 95.7%
[13]; CDK8/C, read-out: Inhibition at 10µM (%) Replicate 2
  inhibition at 10 µM: 95.7%
[13]; [36]
  IC50: 24 nM
[13]; [37]
  IC50: 23 nM
[13]; [38]
  IC50: 25 nM
[13]; [Probe 3] 0.5 µM, n=1, read-out: IC50
  IC50: 48 nM
[14]; [21]
  inhibition at 10 µM: 75.5%
[14]; [22]
  inhibition at 10 µM: 55.7%
[14]; [23]
  inhibition at 10 µM: 95.3%
[15]; [21]
  inhibition at 10 µM: 70.4%
[15]; [22]
  inhibition at 10 µM: 74.2%
[15]; [23]
  inhibition at 10 µM: 66.6%
[15]; [24]
  IC50: 760 nM
[15]; [25]
  IC50: 660 nM
[15]; [26]
  IC50: 860 nM
[16]; [21]
  inhibition at 10 µM: 47.2%
[16]; [22]
  inhibition at 10 µM: 28%
[16]; [23]
  inhibition at 10 µM: 66.3%
[20]; [21]
  inhibition at 10 µM: 2.9%
[20]; [22]
  inhibition at 10 µM: -18.7%
[20]; [23]
  inhibition at 10 µM: 24.5%
[17]; [21]
  inhibition at 10 µM: 53.4%
[17]; [22]
  inhibition at 10 µM: 34.4%
[17]; [23]
  inhibition at 10 µM: 72.3%
